Paper PMC6550521, “Stress-Induced Changes in the Lipid Microenvironment of β-(1,3)-D-Glucan Synthase Cause Clinically Important Echinocandin Resistance in Aspergillus fumigatus” (mBio, 2019)
Starred links: 1 amine or outer side, 2 acyl side, 3 side chain; linkers in the order of their positions; H or OH if unused. Positions of bridges follow the written chain, without caps; N, C: chain ends. Non-standard residues stand in square brackets, D forms with d. Residues, ends and D or L forms follow the SMILES beside them. *: point of attachment. Orn(4R-OH,5R-OCH2CH2NMe3+) = C[N+](C)(C)CCO[C@@H](N[*:3])[C@H](O)C[C@H](N[*:1])C(=O)[*:2]; hTyr(3S-OH,4S-OH,3'-OSO3H) = N[C@H](C(=O)O)[C@H](O)[C@@H](O)c1ccc(O)c(OS(=O)(=O)O)c1; pTerphenylCO(4''-OnC5H11) = CCCCCOc1ccc(-c2ccc(-c3ccc(C(=O)*)cc3)cc2)cc1; Orn(4R-OH,5R-OH) = O=C([C@H](C[C@@H](O)[C@@H](O)N[*:3])N[*:1])[*:2]; hTyr(3S-OH,4S-OH) = N[C@H](C(=O)O)[C@H](O)[C@@H](O)c1ccc(O)cc1; Pro(3S-OH,4S-Me) = C[C@H]1CN[C@H](C(=O)O)[C@H]1O; X1 = CCCCCOc1ccc(-c2cc(-c3ccc(C(=O)*)cc3)no2)cc1; Gln(3R-OH) = NC(=O)C[C@@H](O)[C@H](N)C(=O)O; Hyp = O=C(O)[C@@H]1C[C@@H](O)CN1

Legend:
A. fumigatus RG101 [1] = assay type: cell-based, Aspergillus fumigatus; settings: for Growth phenotype of RG101 with drug alone: 1 μg/ml drug, RPMI 1640, absence of CAS; for Growth phenotype of RG101 with drug alone / Drug susceptibility testing result, RG101: 24 h; for Drug susceptibility testing result, RG101: Fig 1B
Protocol: The following drugs (supplier) were tested: caspofungin (Merck & Co., Inc.), micafungin (Astellas Pharma US, Inc.), anidulafungin (Pfizer Inc.), itraconazole (Sigma-Aldrich), voriconazole (Pfizer Inc.), and amphotericin B (Sigma-Aldrich). In addition, rezafungin and ibrexafungerp were obtained from Cidara Therapeutics and Scynexis Inc., respectively.

A. fumigatus ATCC 13073 = assay: Antifungal susceptibility testing (MEC, CLSI M38-A2); assay type: cell-based, Aspergillus fumigatus; settings: for Drug susceptibility testing result, ATCC 13073: 24 h, Fig 1B
Protocol: (§1) Minimum effective concentrations (MECs) for A. fumigatus strains were determined according to CLSI document M38-A2 ([48]) and defined as the lowest drug concentration that led to the growth of small, rounded, compact hyphal forms compared to the hyphal growth seen in the drug-free growth control wells. The following drugs (supplier) were tested: caspofungin (Merck & Co., Inc.), micafungin (Astellas Pharma US, Inc.), anidulafungin (Pfizer Inc.), itraconazole (Sigma-Aldrich), voriconazole (Pfizer Inc.), and amphotericin B (Sigma-Aldrich). In addition, rezafungin and ibrexafungerp were obtained from Cidara Therapeutics and Scynexis Inc., respectively.

[2] = test system: Aspergillus fumigatus clinical isolate 68284B; assay: as above; assay type: cell-based; settings: fks1 WT
Protocol: as §1

[3] = test system: Aspergillus fumigatus clinical isolate 117; assay: as above; assay type: cell-based; settings: clinical isolate 117, fks1 WT
Protocol: as §1

[4] = test system: Aspergillus fumigatus clinical isolate 2770; assay: as above; assay type: cell-based; settings: clinical isolate 2770, fks1 WT
Protocol: as §1

[5] = test system: Aspergillus fumigatus clinical isolate 32458; assay: as above; assay type: cell-based; settings: clinical isolate 32458, fks1 WT
Protocol: as §1

[6] = test system: Aspergillus fumigatus clinical isolate 32315; assay: as above; assay type: cell-based; settings: clinical isolate 32315, fks1 WT
Protocol: as §1

[7] = target: β-(1,3)-D-glucan synthase of RG101 (Aspergillus fumigatus, UniProt Q4WLT4); assay: Glucan synthase kinetic inhibition assay, enzyme from RG101; assay type: biochemical; settings: enzyme from RG101 grown at 4 μg/ml CAS
Protocol: ATCC 13073 or RG101 was grown in liquid YPD medium at 37°C for 16 h. Partially purified glucan synthase was isolated by the product entrapment method, as previously described ([21]). Sensitivity to echinocandin drugs was measured by glucan synthase assay, using a 96-well multiscreen high-throughput screen filtration system (Millipore Corporation, Bedford, MA) in a final volume of 100 μl. Inhibition of the enzyme by the drug was analyzed after incubation of the enzyme with a radioactive substrate over a broad range of concentrations (0 to 10,000 ng/ml) of echinocandins for 1 h at room temperature. Radioactivity from the enzyme product, β-(1,3)-D-glucan, was measured. Inhibition profiles were determined using a sigmoidal response curve fitting algorithm with GraphPad Prism software (v 7.04).
To study the effect of lipids on the enzyme, dihydrosphingosine, phytosphingosine, or phytoceramide C2 (Sigma-Aldrich D6783, P2795, and C8105, respectively) was added directly to the assay mixture and coincubated with an echinocandin for 1 h at room temperature.

A. fumigatus RG101 [8] = assay: Acute pulmonary aspergillosis model in neutropenic DBA/2 mice, lung fungal burden by qPCR; assay type: in vivo, Aspergillus fumigatus
Protocol: Resistance of RG101 to CAS in vivo was tested in an acute pulmonary aspergillosis model. Thirty inbred DBA/2 mice were rendered neutropenic and infected with 1 × 10^6 RG101 conidia intratracheally. The mice were then treated with CAS (5 mg/kg of body weight), MFG (5 mg/kg), or vehicle daily for 5 days, and lung burdens were determined using quantitative PCR (qPCR). Details of the experiment are provided in Text S1 in the supplemental material.
All animal experiments performed were approved by the Rutgers University Institutional Animal Care and Use Committee. Thirty female DBA/2 mice [The Jackson Laboratory, Bar Harbor, ME] were used in the experiment. The mice were housed in cages equipped with HEPA filters and were allowed free access to food and water. To establish neutropenia, mice were immunosuppressed with cyclophosphamide on days -4 (150 mg/kg), -1 and +2 (100 mg/kg) intraperitoneally (ip) and hydrocortisone on day -1 (200 mg/kg) via subcutaneous injection (sc). The animals were given prophylaxis sc ceftazidime (50 mg/kg) on all days to prevent secondary bacterial infections. A. fumigatus RG101 was streaked out from a frozen glycerol stock and cultured on Potato dextrose agar (PDA) slant for 2 days. The spores were harvested in phosphate-buffered saline (PBS) with 0.05% (v/v) Tween 20 and counted in a hemocytometer. The mice were briefly anesthetized IP Ketamine (65 mg/kg)/Xylazine (5 mg/kg) and infected with 1×10^6 spores of RG101 in 25 µL volume via intratracheal instillation. The 30 RG101 infected mice were randomized into following treatment arms for IP treatment: vehicle, CAS (5 mg/kg), and MFG (5 mg/kg). The first treatment was given at 3 h post infection (PI) and continued daily treatments were administered. On day 5 PI, mice were humanely euthanized via CO2 narcosis. Lungs were excised and homogenized in 1 ml of sterile PBS using a 2 ml tube containing ceramic spheres by MP Biomedicals (116913500). Tissue was then homogenized in 20 s bursts in a mini bead beater (MP FastPrep-24) followed by cooling on ice. DNA was then isolated from an aliquot of the lung homogenate (100 μl) using the QIAamp DNA Mini Kit by Qiagen (51304) and analyzed by real-time quantitative PCR (qPCR) using primers specific for A. fumigatus 18S rRNA genes (Wiederhold et al 2004).

[9] = test system: A. fumigatus S679P (fks1 Ser-679-Pro mutant); assay: Antifungal susceptibility testing (MEC, CLSI M38-A2); assay type: cell-based, Aspergillus fumigatus
Protocol: as §1

[10] = test system: reactive oxygen species (ROS) in A. fumigatus RG101; assay: ROS production, DCFDA fluorescence assay; assay type: cell-based, Aspergillus fumigatus; settings: RG101
Protocol: ROS production in mycelia was measured using a protocol previously described by Blatzer et al. ([51]) with a few changes. Suspensions of 10^4 spores/ml of ATCC 13073 and RG101 were grown in static culture in complete supplement mixture (CSM) medium for 16 h in a 96-well microplate at 37°C. After incubation, the mycelia were washed once with CSM, 10 μM 2′,7′–dichlorofluorescin diacetate (DCFDA) dye was added, and cells were incubated in the dark at 37°C for 30 min. Cells were then washed three times with phosphate-buffered saline (PBS), and a final concentration of 1 μg/ml of each echinocandin in CSM medium was added to different wells. Fluorescence intensity (excitation at 485 nm and emission at 530 nm) was measured for 1 h in a microplate reader (Tecan Infinite M200 Pro). Mycelia stained with DCFDA without any drug were used as a control.

[11] = thiourea 15 mM with CAS 1 μg/ml

Chain of β-(1,3)-D-glucan synthase of RG101 (Q4WLT4 1-1904): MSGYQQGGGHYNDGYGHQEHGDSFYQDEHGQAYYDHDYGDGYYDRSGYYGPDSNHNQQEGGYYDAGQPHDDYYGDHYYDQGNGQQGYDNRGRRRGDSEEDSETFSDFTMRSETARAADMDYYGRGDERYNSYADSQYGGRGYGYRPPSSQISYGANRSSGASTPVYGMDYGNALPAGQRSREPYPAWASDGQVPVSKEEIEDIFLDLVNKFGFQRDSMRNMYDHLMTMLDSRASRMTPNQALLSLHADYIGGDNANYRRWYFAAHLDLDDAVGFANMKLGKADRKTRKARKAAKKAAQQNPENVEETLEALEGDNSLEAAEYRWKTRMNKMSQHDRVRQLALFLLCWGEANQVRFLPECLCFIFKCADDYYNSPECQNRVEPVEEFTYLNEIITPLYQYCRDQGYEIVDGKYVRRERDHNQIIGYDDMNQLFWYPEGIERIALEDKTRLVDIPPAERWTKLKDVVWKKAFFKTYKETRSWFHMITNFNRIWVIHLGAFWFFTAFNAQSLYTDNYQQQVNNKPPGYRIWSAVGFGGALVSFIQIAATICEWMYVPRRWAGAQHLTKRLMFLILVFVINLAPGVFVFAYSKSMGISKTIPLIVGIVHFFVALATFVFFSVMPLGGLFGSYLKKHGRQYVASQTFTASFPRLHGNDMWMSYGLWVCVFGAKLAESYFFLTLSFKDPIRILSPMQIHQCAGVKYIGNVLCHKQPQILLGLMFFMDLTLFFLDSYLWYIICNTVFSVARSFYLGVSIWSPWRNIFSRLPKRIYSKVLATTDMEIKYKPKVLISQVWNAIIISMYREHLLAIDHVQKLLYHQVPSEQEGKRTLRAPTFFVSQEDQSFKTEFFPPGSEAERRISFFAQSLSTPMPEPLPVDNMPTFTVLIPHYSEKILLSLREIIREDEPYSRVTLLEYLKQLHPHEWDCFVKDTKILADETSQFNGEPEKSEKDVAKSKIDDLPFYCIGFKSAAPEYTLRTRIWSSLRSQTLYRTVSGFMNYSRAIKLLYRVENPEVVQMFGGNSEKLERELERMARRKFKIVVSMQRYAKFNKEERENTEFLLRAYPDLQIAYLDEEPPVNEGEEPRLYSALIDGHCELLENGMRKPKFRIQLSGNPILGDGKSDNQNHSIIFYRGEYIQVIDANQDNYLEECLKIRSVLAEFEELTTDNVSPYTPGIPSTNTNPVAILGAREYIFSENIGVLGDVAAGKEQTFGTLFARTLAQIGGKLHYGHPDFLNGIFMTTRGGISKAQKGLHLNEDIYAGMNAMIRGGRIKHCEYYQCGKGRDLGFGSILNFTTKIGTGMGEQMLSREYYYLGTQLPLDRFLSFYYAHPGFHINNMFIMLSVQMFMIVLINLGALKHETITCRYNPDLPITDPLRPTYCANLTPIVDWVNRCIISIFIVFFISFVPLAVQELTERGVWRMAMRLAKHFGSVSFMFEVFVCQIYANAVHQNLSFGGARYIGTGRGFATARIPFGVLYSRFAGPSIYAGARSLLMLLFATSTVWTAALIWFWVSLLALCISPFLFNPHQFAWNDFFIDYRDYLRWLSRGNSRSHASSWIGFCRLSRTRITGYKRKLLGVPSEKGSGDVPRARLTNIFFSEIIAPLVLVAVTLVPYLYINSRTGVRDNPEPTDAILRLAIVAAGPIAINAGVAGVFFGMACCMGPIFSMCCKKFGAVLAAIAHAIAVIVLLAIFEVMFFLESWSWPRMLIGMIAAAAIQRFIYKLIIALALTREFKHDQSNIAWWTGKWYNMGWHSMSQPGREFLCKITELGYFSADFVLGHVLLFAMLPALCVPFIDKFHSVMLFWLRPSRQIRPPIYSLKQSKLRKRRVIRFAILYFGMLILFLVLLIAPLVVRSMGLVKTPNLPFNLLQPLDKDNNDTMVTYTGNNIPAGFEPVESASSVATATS

| SMILES | Growth phenotype of RG101 with drug in combination with CAS (A. fumigatus RG101 [1]) | Growth phenotype of RG101 with drug alone (A. fumigatus RG101 [1]) | Drug susceptibility testing result, RG101 (A. fumigatus RG101 [1]) | Drug susceptibility testing result, ATCC 13073 (A. fumigatus ATCC 13073) | other results |
| --- | --- | --- | --- | --- | --- |
| CCCCCOc1ccc(-c2ccc(-c3ccc(C(=O)N[C@H]4C[C@@H](O)[C@@H](O)NC(=O)[C@@H]5[C@@H](O)[C@@H](C)CN5C(=O)[C@H]([C@@H](C)O)NC(=O)[C@H]([C@H](O)[C@@H](O)c5ccc(O)cc5)NC(=O)[C@@H]5C[C@@H](O)CN5C(=O)[C@H]([C@@H](C)O)NC4=O)cc3)cc2)cc1 [ANF, anidulafungin] ({pTerphenylCO(4''-OnC5H11)}-[Orn(4R-OH,5R-OH)]T[Hyp][hTyr(3S-OH,4S-OH)]T[Pro(3S-OH,4S-Me)]; lactam 1-C) | cross-resistance | sensitive | 0.03 µg/mL | 0.03 µg/mL | – |
| C[C@@H]1[C@H](O)[C@@H](C)/C=C/C=C/C=C/C=C/C=C/C=C/C=C/[C@H](O[C@@H]2O[C@H](C)[C@@H](O)[C@H](N)[C@@H]2O)C[C@@H]2O[C@](O)(C[C@@H](O)C[C@@H](O)[C@H](O)CC[C@@H](O)C[C@@H](O)CC(=O)O[C@H]1C)C[C@H](O)[C@H]2C(=O)O [Amphotericin B, amphotericin B] | – | – | 0.5 µg/mL | 0.5 µg/mL | – |
| CC(C)[C@@H](C)[C@@]1(C)CC[C@]2(C)[C@H]3CC[C@@H]4[C@@]5(COC[C@@]4(C)[C@@H](OC[C@](C)(N)C(C)(C)C)[C@H](n4ncnc4-c4ccncc4)C5)C3=CC[C@@]2(C)[C@@H]1C(=O)O [IFG, ibrexafungerp] | cross-resistance | sensitive | – | – | – |
| CCC(C)n1ncn(-c2ccc(N3CCN(c4ccc(OCC5COC(Cn6cncn6)(c6ccc(Cl)cc6Cl)O5)cc4)CC3)cc2)c1=O (stereo not drawn) [Itraconazole, itraconazole] | – | – | 0.5 µg/mL | 0.5 µg/mL | – |
| CCCCCOc1ccc(-c2cc(-c3ccc(C(=O)N[C@H]4C[C@@H](O)[C@@H](O)NC(=O)[C@@H]5[C@@H](O)[C@@H](C)CN5C(=O)[C@H]([C@H](O)CC(N)=O)NC(=O)[C@H]([C@H](O)[C@@H](O)c5ccc(O)c(OS(=O)(=O)O)c5)NC(=O)[C@@H]5C[C@@H](O)CN5C(=O)[C@H]([C@@H](C)O)NC4=O)cc3)no2)cc1 [MFG, micafungin] (X1-[Orn(4R-OH,5R-OH)]T[Hyp][hTyr(3S-OH,4S-OH,3'-OSO3H)][Gln(3R-OH)][Pro(3S-OH,4S-Me)]; lactam 1-C) | cross-resistance | sensitive | 0.03 µg/mL | 0.03 µg/mL | MEC (minimum effective concentration) [2]: 4 µg/mL; MEC (minimum effective concentration) [3]: 4 µg/mL; MEC (minimum effective concentration) [4]: 2 µg/mL; MEC (minimum effective concentration) [5]: 2 µg/mL; MEC (minimum effective concentration) [6]: 2 µg/mL; IC50 [7]: > 7.87 µM; Decrease in lung burden versus vehicle-treated group (A. fumigatus RG101 [8]; RG101, 5 mg/kg daily for 5 days): ~5 fold; Average fungal lung burden (A. fumigatus RG101 [8]; RG101 intratracheal, 5 mg/kg daily IP for 5 days, qPCR): 5.2 ng fungal DNA per lung; MEC (minimum effective concentration) ([9]; S679P, fks1 Ser-679-Pro): 16 µg/mL; MEC (minimum effective concentration) (A. fumigatus ATCC 13073; ATCC 13073, fks1 WT): 0.03 µg/mL |
| CCCCCOc1ccc(-c2ccc(-c3ccc(C(=O)N[C@H]4C[C@@H](O)[C@@H](OCC[N+](C)(C)C)NC(=O)[C@@H]5[C@@H](O)[C@@H](C)CN5C(=O)[C@H]([C@@H](C)O)NC(=O)[C@H]([C@H](O)[C@@H](O)c5ccc(O)cc5)NC(=O)[C@@H]5C[C@@H](O)CN5C(=O)[C@H]([C@@H](C)O)NC4=O)cc3)cc2)cc1 [RZF, rezafungin] ({pTerphenylCO(4''-OnC5H11)}-[Orn(4R-OH,5R-OCH2CH2NMe3+)]T[Hyp][hTyr(3S-OH,4S-OH)]T[Pro(3S-OH,4S-Me)]; lactam 1-C) | cross-resistance | sensitive | – | – | – |
| C[C@@H](c1ncncc1F)[C@](O)(Cn1cncn1)c1ccc(F)cc1F [Voriconazole, voriconazole] | – | – | 0.12 µg/mL | 0.12 µg/mL | – |
| CCCCCC[C@H]1C(=O)O[C@H](C)[C@H](NC(=O)c2cccc(NC=O)c2O)C(=O)O[C@@H](C)[C@@H]1OC(=O)CC(C)C [antimycin A] | – | – | – | – | Decrease of CAS-induced ROS production ([10]; 0.5 μg/ml antimycin A): over 2 fold |
| NC(N)=S [thiourea] | – | – | – | – | Reduction of CAS-induced ROS levels ([10]; 15 mM thiourea): 4 fold; Effect on CAS-induced breakthrough resistance phenotype of RG101 (A. fumigatus RG101 [1]; [11]): reversed; Effect on CAS resistance of S679P [9, 11]: no effect; Effect on CAS phenotype of ATCC 13073 (A. fumigatus ATCC 13073; [11]): no change |
